Data taken from PMC9429723, “Hypertoxic self-assembled peptide with dual functions of glutathione depletion and biosynthesis inhibition for selective tumor ferroptosis and pyroptosis” (Journal of Nanobiotechnology, 2022).
Read-outs that look alike come from different tables or passages of the source. Each block holds one molecule with its values, some of them ahead of it. *: point of attachment. Cbz = O=C(OCc1ccccc1)*; CH2F = FC*

Columns and labels:
GPX4 = experiment: Intracellular GPX4 activity assay in 4T1 cell lysates; format: cell-based, mouse; conditions: 10 μM, 6 h, t-BuOOH as substrate
Procedure: 4T1 cells were all seeded in the density of 1 × 10^6 cells per dish in 6-cm dishes for 24 h. Upon completion of incubation with different treatments for 6 h, the cell lysates were collected and quantified by a detergent compatible bradford protein assay kit. The intracellular GPX activity was measured through a cellular glutathione peroxidase assay kit on the basis of the manufacturer’s instructions.

4T1 cells [1] = format: cell-based, mouse
Procedure: (§1) All cells (8 × 10^3 per well) were plated in 96-well plates at 37 °C and 5% CO2 overnight. Then cells were treated with gradient concentrations of NSBSO, NCSBSO, NS or BSO for another 12 h or 24 h. Afterward, cck-8 reagent was added to each well. And the 96-well plates were incubated for another 3 h at 37 °C and followed by determining the absorbance at 450 nm utilizing a microplate reader (Thermo, USA). IC50 values of NSBSO against different cells were conducted using GraphPad Prism 8 software. Additionally, in order to determine the cell cytotoxicity of NSBSO after treatment with various inhibitors or GSH, the cells were pretreated with inhibitors for 24 h or GSH (0, 1, 2.5 and 5 mM) for 12 h before NSBSO treatment. The human breast adenocarcinoma cell line (MCF-7 cells), mouse melanoma cell line (B16 cells), human lung cancer line (A549 cells), mouse breast cancer cell line (4T1 cells), murine colon carcinoma cell line (CT26 cells) and mouse embryonic fibroblast cell line (3T3 cells) were used for research. MCF-7 and 3T3 cells were cultured in DMEM culture medium supplemented with 10% FBS and 1% penicillin/streptomycin (pen/strep) at 37 °C in 5% CO2. B16, A549, 4T1 and CT26 cells were cultured in RPMI Medium 1640 basic supplemented with 10% FBS and 1% penicillin/streptomycin (pen/strep) at 37 °C in 5% CO2.

B16 cells [2] = format: cell-based, mouse
Procedure: as §1

4T1 cells [3] = experiment: Rescue of NSBSO-induced cell death by inhibitors, 4T1 cells; format: cell-based, mouse
Procedure: (§2) All cells (8 × 10^3 per well) were plated in 96-well plates at 37 °C and 5% CO2 overnight. Then cells were treated with gradient concentrations of NSBSO, NCSBSO, NS or BSO for another 12 h or 24 h. Afterward, cck-8 reagent was added to each well. And the 96-well plates were incubated for another 3 h at 37 °C and followed by determining the absorbance at 450 nm utilizing a microplate reader (Thermo, USA). IC50 values of NSBSO against different cells were conducted using GraphPad Prism 8 software. Additionally, in order to determine the cell cytotoxicity of NSBSO after treatment with various inhibitors or GSH, the cells were pretreated with inhibitors for 24 h or GSH (0, 1, 2.5 and 5 mM) for 12 h before NSBSO treatment.

B16 cells [4] = experiment: Rescue of NSBSO-induced cell death by inhibitors, B16 cells; format: cell-based, mouse; conditions: inhibitor pretreated 24 h, NSBSO 12 h, cck-8
Procedure: as §2

CT26 cells = format: cell-based, murine
Procedure: as §1

in vitro = conditions: serum
3T3 cells = format: cell-based, mouse
Procedure: as §1

MCF-7 cells = format: cell-based, human
Procedure: as §1

A549 cells = format: cell-based, human
Procedure: as §1

Molecule: CCCCS(=N)(=O)CC[C@H](N)C(=O)O (stereo partly drawn) [BSO, L-buthionine-sulfoximine, reference compound]
activity of GPX4 (rate of NADPH oxidation, 340 nm) (GPX4): suppressed to varying degrees
cytotoxicity (4T1 cells [1]): did not show obvious cytotoxicity
cytotoxicity (B16 cells [2]): did not show obvious cytotoxicity

Molecule: CCOC(=O)c1ccc(NC2CCCCC2)c(N)c1 [Fer-1, ferrostatin-1]
rescue of NSBSO-induced cell death (4T1 cells [3]; Fer-1 0.5 μM pretreated 24 h before NSBSO treatment, cck-8, n = 4): 42.13%
rescue of NSBSO-induced cell death (B16 cells [4]): did not markedly alleviate

Molecule: CCCCS(=N)(=O)CC[C@H](NC(=O)[C@H](CC(=O)O)NC(=O)[C@@H](NC(=O)[C@H](CCC(=O)O)NC(=O)[C@H](CC(=O)O)NC(=O)CCC(=O)NCCCCCCNC(=O)[C@H](Cc1ccc(O)cc1)NC(=O)[C@@H](Cc1ccccc1)NC(=O)[C@@H](Cc1ccccc1)NC(=O)Cc1ccc2ccccc2c1)C(C)C)C(=O)O (stereo partly drawn) [NCBSO, Nap-^DF^DFY-HDA-DEVD-BSO]
cytotoxicity (4T1 cells [1]): did not show obvious cytotoxicity
cytotoxicity (B16 cells [2]): did not show obvious cytotoxicity

Molecule: CC(C)[C@H](NC(=O)[C@H](CCC(=O)O)NC(=O)[C@H](CC(=O)O)NC(=O)CCC(=O)NCCSSCCNC(=O)[C@H](Cc1ccc(O)cc1)NC(=O)[C@@H](Cc1ccccc1)NC(=O)[C@@H](Cc1ccccc1)NC(=O)Cc1ccc2ccccc2c1)C(=O)N[C@@H](CC(=O)O)C(=O)O [NS, Nap-^DF^DFY-CS-DEVD]
cytotoxicity (4T1 cells [1]): concentration-dependent cytotoxicity
cytotoxicity (B16 cells [2]): concentration-dependent cytotoxicity

IC50 (CT26 cells; 12 h): > 100 µM
IC50 (CT26 cells; 24 h): > 100 µM
remaining at 2 h, 400 μM (in vitro): > 80%
remaining at 24 h, 400 μM (in vitro): > 50%
IC50 (4T1 cells [1]; 12 h): 10.9 µM
IC50 (4T1 cells [1]; 24 h): 4.74 µM
IC50 (B16 cells [2]; 12 h): 1.98 µM
IC50 (B16 cells [2]; 24 h): 0.844 µM
IC50 (MCF-7 cells; 12 h): 4.43 µM
IC50 (MCF-7 cells; 24 h): 1.07 µM
IC50 (A549 cells; 12 h): 7.56 µM
IC50 (A549 cells; 24 h): 1.22 µM
Molecule: CCCCS(=N)(=O)CC[C@H](NC(=O)[C@H](CC(=O)O)NC(=O)[C@@H](NC(=O)[C@H](CCC(=O)O)NC(=O)[C@H](CC(=O)O)NC(=O)CCC(=O)NCCSSCCNC(=O)[C@H](Cc1ccc(O)cc1)NC(=O)[C@@H](Cc1ccccc1)NC(=O)[C@@H](Cc1ccccc1)NC(=O)Cc1ccc2ccccc2c1)C(C)C)C(=O)O (stereo partly drawn) [NSBSO, Nap-^DF^DFY-CS-DEVD-BSO]
cytotoxicity (4T1 cells [1]): concentration-dependent cytotoxicity
cytotoxicity (B16 cells [2]): concentration-dependent cytotoxicity
IC50 (3T3 cells; 12 h): > 100 µM
IC50 (3T3 cells; 24 h): > 100 µM

Molecule: Ac-DEVD-CHO
rescue of NSBSO-induced cell death (B16 cells [4]): better rescued

Molecule: Cbz-Val-Ala-Asp-CH2F
rescue of NSBSO-induced cell death (4T1 cells [3]; NSBSO 5 μM, 24 h, cck-8): scarcely rescued
